Assay [1] relates to TLR4 protein. The settings on record: summary statement; no method described.
Assay [2] has as its system TLR4 mRNA in human intestinal tract epithelial cell strain HT-29. The class given is cell-based.

In the case of `CCCC(=O)O` [butyric acid], in assay [1], the “expression amount of TLR4 protein (result in words)” value was “reduced”. Further, the “TLR4 mRNA expression (result in words)” value in assay [2] is recorded as “similarly reduced”.

For the origin of these results see patent US20090010902A1 (priority 2007, published 2009).
